Consider three compounds from PMC4774911, “Biochemical Screening of Five Protein Kinases from Plasmodium falciparum against 14,000 Cell-Active Compounds” (PLoS ONE, 2016).

Several values for one entry are separate records, joined by “and”; a condition that tells them apart may be missing. Identical values can stand only once.

Test [1] has as its target T1, BMPR2 (Homo sapiens, UniProt Q13873).
T1 sequence (Q13873 1-1038): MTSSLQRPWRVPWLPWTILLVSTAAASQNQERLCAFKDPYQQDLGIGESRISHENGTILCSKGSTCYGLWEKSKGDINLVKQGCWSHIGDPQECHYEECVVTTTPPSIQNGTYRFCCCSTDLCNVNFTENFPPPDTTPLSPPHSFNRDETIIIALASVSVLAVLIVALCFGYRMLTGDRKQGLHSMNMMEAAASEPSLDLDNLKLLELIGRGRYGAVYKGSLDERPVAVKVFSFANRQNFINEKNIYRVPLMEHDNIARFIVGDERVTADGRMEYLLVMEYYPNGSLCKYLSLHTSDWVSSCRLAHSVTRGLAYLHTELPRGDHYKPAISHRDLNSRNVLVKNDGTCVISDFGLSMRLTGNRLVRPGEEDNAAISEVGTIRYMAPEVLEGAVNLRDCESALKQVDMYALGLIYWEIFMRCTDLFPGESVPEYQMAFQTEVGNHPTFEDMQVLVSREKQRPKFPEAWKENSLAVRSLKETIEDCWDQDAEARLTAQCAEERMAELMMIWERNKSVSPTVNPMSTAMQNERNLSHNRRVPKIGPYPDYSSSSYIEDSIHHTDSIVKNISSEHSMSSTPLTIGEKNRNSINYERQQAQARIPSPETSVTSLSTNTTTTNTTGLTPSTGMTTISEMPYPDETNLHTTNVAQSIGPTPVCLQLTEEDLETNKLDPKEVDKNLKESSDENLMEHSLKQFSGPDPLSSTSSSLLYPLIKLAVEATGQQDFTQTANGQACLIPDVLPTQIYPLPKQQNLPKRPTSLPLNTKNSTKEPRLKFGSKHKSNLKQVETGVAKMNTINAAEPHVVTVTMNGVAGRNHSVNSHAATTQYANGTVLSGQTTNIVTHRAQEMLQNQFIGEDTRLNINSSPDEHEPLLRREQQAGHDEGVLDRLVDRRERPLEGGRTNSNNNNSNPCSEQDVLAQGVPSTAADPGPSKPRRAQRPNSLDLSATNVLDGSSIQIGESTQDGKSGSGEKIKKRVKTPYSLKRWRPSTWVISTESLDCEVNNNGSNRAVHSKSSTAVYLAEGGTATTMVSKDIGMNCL
Description: biochemical.

Test [2] addresses T2, NEK3 (Homo sapiens, UniProt P51956).
T2 sequence (P51956 1-506): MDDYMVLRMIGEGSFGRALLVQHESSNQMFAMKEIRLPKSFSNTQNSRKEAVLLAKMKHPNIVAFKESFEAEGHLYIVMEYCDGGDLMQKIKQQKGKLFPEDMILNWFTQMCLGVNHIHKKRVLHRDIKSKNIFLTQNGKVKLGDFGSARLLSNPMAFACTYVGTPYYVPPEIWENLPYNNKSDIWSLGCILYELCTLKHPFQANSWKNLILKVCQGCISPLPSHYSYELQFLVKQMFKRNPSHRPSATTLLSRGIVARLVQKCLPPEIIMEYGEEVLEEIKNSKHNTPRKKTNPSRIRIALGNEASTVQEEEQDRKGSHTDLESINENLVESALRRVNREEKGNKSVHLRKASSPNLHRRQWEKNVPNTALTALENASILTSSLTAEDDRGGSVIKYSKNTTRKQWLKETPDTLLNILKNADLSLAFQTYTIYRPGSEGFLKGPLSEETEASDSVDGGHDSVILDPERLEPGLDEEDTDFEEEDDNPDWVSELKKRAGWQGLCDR
Description: biochemical.

Test [3] deals with T3, PIP4K2C (Homo sapiens, UniProt Q8TBX8).
T3 sequence (Q8TBX8 1-421): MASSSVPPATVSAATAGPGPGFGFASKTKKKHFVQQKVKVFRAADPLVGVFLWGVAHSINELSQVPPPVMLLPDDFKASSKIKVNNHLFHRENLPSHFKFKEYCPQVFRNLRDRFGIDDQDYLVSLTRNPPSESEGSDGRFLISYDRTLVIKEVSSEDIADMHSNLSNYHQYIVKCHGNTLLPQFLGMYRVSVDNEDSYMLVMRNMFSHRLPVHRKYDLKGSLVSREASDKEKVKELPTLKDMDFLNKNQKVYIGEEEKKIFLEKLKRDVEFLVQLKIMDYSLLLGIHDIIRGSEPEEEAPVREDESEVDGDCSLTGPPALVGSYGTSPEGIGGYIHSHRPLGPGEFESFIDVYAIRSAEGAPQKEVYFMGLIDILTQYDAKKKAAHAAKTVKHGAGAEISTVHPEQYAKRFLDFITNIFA
Description: biochemical.

For test [4], the target named is CDK6 (Homo sapiens, UniProt Q00534). Description: biochemical.
In test [5] the target is T4, Plasmodium falciparum calcium-dependent protein kinase 1 (CDPK1) (Plasmodium falciparum, UniProt P62344).
T4 construct: 6-Histidine (N); made in house
The test can be described thus: CDPK1 Kinase-Glo ATP-consumption screen and dose-response. The conditions noted are these: hits below 1 uM; read-out: CDPK1 IC50. It counts as biochemical. Summed up:
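Single-point testing used 1 μM final compound, then dose-response, against CDPK4 and CDPK1 with Syntide-2 (40 μM) as substrate. After 90 min, reactions were halted by 5 mM EGTA, and kinase activity was inferred from depleted ATP via Kinase-Glo luminescence.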

The target of test [6] is RIOK2 (Homo sapiens, UniProt Q9BVS4). Description: biochemical.
Test [7] deals with PRKDC (Homo sapiens, UniProt P78527). Description: biochemical.
Test [8] addresses BMPR1A (Homo sapiens, UniProt P36894). The test can be described thus: biochemical.
Test [9] deals with MAP3K5 (Homo sapiens, UniProt Q99683). The test can be described thus: biochemical.
Test [10] deals with CAMK2A (Homo sapiens, UniProt Q9UQM7). The test can be described thus: biochemical.
Test [11] has as its target LIMK2 (Homo sapiens, UniProt P53671). The test can be described thus: biochemical.

CDK6, sequence (Q00534 whole entry): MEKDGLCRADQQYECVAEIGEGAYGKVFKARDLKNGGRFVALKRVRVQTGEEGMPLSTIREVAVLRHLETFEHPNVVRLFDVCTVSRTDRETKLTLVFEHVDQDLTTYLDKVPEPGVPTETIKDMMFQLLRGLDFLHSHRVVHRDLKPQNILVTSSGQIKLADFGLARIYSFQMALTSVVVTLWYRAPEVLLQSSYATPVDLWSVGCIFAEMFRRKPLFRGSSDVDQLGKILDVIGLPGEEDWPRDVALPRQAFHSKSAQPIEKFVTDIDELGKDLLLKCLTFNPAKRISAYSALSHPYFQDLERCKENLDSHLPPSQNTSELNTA
CAMK2A, sequence (Q9UQM7 whole entry): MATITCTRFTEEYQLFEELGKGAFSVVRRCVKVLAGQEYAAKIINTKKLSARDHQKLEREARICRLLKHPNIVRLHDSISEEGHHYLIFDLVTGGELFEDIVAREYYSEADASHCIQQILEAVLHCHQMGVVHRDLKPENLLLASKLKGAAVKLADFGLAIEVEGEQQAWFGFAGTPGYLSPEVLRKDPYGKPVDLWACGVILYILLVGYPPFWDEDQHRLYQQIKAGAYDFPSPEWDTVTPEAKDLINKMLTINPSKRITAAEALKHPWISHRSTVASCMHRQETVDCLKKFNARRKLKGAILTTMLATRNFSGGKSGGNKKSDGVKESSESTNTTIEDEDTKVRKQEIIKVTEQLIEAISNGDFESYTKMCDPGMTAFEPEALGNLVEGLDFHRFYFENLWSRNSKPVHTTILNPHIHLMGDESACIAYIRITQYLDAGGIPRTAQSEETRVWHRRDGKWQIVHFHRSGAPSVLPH
T4 sequence (P62344 whole entry): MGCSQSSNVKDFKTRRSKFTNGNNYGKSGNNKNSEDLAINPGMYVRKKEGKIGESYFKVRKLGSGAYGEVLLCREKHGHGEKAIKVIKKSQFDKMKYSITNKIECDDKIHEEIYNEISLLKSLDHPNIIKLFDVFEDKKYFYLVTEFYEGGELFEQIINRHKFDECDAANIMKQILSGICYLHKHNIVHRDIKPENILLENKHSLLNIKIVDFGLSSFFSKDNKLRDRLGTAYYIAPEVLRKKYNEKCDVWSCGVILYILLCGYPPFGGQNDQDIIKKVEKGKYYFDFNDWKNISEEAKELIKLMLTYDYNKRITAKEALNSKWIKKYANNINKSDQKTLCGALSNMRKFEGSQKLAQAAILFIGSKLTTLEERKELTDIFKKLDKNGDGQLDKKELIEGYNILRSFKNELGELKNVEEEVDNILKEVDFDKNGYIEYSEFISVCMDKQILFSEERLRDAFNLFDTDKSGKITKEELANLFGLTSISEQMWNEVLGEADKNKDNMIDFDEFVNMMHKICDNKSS
BMPR1A, sequence (P36894 whole entry): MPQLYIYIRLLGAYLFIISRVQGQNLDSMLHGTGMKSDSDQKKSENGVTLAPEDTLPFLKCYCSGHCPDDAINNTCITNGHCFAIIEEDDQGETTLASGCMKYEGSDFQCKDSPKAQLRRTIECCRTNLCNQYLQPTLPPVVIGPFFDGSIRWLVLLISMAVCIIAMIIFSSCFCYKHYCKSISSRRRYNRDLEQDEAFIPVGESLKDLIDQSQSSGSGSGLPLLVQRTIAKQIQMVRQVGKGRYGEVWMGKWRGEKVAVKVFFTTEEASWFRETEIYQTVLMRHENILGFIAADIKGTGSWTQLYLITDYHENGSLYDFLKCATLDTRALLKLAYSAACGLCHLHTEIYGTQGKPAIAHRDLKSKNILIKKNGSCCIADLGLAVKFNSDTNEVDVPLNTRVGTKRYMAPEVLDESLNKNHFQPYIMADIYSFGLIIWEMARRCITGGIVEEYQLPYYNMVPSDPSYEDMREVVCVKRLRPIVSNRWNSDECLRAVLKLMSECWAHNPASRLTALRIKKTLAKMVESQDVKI
LIMK2, sequence (P53671 whole entry): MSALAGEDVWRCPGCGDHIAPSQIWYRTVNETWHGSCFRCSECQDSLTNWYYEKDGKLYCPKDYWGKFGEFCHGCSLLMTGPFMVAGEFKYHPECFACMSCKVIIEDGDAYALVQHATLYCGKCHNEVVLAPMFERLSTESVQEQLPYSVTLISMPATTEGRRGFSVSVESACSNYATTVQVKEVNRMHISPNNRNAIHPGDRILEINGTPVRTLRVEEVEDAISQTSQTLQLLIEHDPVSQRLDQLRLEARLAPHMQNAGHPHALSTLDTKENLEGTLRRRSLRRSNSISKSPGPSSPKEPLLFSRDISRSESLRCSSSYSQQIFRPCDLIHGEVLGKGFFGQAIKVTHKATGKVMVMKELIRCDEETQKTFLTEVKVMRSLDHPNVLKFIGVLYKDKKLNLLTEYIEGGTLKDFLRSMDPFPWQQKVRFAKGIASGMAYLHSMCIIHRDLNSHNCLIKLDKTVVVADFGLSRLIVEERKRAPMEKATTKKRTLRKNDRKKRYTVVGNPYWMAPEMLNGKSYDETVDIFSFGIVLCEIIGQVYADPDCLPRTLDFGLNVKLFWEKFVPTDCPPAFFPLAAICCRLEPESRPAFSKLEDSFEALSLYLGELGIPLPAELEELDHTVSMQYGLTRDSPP
MAP3K5, sequence (Q99683 whole entry): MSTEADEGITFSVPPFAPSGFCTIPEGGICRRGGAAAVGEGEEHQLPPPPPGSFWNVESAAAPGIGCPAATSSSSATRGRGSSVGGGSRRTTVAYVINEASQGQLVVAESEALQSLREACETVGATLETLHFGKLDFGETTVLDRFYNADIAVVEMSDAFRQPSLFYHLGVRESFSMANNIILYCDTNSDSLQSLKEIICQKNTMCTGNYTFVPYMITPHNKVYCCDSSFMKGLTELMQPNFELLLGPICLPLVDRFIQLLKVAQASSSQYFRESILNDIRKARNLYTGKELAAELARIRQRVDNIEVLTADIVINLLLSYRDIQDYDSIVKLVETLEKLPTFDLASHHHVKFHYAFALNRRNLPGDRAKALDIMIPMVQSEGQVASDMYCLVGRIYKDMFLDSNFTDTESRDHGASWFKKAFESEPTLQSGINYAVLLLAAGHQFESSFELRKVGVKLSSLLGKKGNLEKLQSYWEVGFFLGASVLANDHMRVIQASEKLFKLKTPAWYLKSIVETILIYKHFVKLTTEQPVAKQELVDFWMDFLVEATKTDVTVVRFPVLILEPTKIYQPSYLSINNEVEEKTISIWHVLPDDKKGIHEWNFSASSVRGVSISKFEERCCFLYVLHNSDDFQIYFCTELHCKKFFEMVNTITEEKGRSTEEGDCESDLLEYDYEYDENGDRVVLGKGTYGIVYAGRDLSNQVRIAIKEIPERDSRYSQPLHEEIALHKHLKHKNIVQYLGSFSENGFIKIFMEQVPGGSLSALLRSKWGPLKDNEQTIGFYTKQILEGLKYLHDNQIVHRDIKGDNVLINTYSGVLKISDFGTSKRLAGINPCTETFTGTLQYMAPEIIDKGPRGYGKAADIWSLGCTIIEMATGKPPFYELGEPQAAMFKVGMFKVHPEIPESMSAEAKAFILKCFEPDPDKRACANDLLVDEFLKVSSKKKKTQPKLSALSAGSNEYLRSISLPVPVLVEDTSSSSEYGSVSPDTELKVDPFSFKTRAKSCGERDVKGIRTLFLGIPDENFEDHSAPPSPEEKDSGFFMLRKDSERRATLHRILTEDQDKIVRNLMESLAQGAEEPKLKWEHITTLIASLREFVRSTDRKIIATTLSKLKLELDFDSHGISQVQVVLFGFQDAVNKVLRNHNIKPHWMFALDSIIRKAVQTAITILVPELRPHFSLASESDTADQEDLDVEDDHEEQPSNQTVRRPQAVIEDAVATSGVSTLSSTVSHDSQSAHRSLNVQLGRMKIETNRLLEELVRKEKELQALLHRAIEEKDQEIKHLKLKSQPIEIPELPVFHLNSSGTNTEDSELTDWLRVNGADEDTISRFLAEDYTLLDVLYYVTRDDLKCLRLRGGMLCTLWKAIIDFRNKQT
RIOK2, sequence (Q9BVS4 whole entry): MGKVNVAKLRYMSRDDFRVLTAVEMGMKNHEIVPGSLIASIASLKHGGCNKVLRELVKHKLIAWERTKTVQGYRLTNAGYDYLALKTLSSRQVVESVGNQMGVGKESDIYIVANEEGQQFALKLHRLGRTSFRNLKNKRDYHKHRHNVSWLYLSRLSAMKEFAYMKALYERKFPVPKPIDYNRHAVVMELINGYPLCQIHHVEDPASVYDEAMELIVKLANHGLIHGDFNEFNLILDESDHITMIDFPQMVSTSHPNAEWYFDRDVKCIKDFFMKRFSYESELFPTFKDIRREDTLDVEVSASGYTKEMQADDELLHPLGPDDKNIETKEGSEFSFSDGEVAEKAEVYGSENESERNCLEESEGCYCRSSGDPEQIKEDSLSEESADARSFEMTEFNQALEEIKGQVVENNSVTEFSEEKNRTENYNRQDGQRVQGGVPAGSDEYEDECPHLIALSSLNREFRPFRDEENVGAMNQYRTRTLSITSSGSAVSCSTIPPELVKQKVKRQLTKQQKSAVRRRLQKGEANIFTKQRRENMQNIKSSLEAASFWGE

In the case of `CN1CCN(c2ccc(Nc3ncc(C#N)c(Nc4ccccc4C(N)=O)n3)cc2)CC1.Cl` [TCMDC-134116], the IC50 in test [1] was 4.9 µM and 6.7 µM; in [2], 1.1 µM; in test [3], 0.97 µM and 1 µM; in test [4], 0.16 µM and 0.18 µM; in test [5], 0.012 µM.
`Cl.NCC1(c2nc(-c3ccc(Cl)c(O)c3)c(-c3ccncc3)[nH]2)CCCCC1` [TCMDC-141154]: the IC50 in test [6], in test [2], in test [3], in [7], in [8] and in test [9] was greater than 20 µM throughout. For the same compound, the IC50 in test [4] is greater than 20 µM; in test [10], greater than 20 µM; in test [11], greater than 20 µM; in [5], 0.014 µM.
With `CN(C)CC(O)COc1ccc(Nc2ncc([N+](=O)[O-])c(Nc3ccccc3O)n2)cc1.O=C(O)C(F)(F)F` (stereo not shown) [TCMDC-141399], the IC50 in test [6], in test [1], in test [7], in [8], in test [9] and in [10] was greater than 20 µM throughout. Also, in [11], the IC50 was greater than 20 µM.

A word on the IC50: it is the concentration that gives 50% inhibition.
